In patent US11174268B2, “Benzenesulfonamide compouds and their use as therapeutic agents” (Xenon Pharmaceuticals Inc., priority 2016, dated 2021) one finds IC50 data, which are given here for 27 molecules.

Structures are written as SMILES. Structures can show the parent of a compound that is named as a salt.

One series deals with NaV1.1 (Homo sapiens (Human), UniProt P35498). Put plainly: Sodium Influx Assay (Flux), NaV1.1.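 Also: channels co-expressed with human β1 subunit and held open by modulators, cells exposed to compounds for one hour at room temperature, IC50 from percent inhibition of influx.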 The format is cell-based. The conditions noted are these: Trex HEK293 cells, ANG2 dye, inactivated state.
Another series deals with NaV1.5 (Homo sapiens (Human), UniProt Q14524). Put plainly: Sodium Influx Assay (Flux), NaV1.5. The conditions noted are these: read-out: Flux NaV1.5 IC50; Trex HEK293 cells, ANG2 dye, inactivated state.
Chain of NaV1.5 (Q14524 other isoform, or with tags, fused parts or gaps): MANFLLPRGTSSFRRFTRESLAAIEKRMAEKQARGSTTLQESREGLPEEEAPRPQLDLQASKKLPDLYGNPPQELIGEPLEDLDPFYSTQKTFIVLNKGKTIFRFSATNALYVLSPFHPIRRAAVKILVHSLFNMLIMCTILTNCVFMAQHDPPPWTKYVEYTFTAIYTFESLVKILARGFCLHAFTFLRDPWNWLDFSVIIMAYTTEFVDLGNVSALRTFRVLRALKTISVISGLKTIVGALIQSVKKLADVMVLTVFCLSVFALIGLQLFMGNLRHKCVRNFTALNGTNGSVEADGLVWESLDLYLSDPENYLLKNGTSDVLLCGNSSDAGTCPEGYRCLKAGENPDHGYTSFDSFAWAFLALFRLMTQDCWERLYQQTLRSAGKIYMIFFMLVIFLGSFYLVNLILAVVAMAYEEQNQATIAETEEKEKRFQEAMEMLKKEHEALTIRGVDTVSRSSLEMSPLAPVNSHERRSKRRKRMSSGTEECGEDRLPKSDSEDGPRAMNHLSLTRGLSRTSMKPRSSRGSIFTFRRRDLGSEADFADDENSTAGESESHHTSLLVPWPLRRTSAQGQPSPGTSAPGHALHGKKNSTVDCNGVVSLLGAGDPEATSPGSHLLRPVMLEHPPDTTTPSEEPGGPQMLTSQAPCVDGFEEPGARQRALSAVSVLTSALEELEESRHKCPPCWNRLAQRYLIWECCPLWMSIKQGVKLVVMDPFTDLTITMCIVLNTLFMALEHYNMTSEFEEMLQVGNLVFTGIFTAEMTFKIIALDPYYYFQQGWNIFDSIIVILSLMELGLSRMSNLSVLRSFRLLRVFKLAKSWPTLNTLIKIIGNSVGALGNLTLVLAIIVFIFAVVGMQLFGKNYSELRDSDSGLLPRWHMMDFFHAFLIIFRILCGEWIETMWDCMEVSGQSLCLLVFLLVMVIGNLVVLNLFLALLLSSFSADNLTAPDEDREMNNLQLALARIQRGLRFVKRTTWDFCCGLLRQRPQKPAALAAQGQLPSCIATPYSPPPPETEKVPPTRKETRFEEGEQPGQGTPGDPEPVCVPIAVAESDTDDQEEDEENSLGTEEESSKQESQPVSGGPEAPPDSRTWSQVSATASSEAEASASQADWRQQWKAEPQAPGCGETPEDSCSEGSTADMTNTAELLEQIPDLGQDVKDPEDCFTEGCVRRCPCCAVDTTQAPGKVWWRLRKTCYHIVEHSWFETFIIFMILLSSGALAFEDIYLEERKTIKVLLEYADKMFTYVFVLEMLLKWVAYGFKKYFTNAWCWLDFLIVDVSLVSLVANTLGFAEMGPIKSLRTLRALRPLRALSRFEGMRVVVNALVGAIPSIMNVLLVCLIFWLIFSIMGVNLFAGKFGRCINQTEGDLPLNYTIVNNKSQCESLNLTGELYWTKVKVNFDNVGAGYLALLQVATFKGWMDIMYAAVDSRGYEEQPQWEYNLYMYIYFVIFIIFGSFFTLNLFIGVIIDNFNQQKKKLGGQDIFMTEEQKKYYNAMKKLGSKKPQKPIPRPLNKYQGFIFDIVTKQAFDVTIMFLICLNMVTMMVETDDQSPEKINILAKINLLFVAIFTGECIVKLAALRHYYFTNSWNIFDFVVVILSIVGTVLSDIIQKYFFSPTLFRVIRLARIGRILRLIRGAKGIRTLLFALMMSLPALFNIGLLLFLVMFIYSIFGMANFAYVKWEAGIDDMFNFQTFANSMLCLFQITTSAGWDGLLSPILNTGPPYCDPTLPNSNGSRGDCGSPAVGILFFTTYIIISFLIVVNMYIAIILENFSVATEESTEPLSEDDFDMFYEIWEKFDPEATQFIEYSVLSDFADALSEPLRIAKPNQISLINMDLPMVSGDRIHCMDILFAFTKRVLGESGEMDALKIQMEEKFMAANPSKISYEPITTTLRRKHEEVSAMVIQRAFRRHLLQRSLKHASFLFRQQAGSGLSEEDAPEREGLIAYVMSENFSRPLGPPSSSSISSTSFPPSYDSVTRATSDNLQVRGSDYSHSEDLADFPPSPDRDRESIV
Another series deals with NaV1.6 (Homo sapiens (Human), UniProt Q9UQD0). Put plainly: Sodium Influx Assay (Flux), NaV1.6.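 Also: Tetracycline-induced cells, compounds applied for one hour at room temperature with modulators holding channels open, IC50 from percent inhibition of sodium influx.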 The format is cell-based. The conditions noted are these: Trex HEK293 cells, ANG2 dye, inactivated state.

On to `C[C@H](Nc1cc(F)c(S(=O)(=O)Nc2nccs2)cc1Cl)c1ccc(F)c(F)c1` [Example 53, (S)-5-chloro-4-((1-(3,4-difluorophenyl)ethyl)amino)-2-fluoro-N-(thiazol-2-yl)benzenesulfonamide], for which the IC50 (usually the concentration needed to halve the response being measured) is 0.726 µM on NaV1.1, 6.89 µM at NaV1.5 and 0.741 µM at NaV1.6.
Consider `CCC(Nc1cc(F)c(S(=O)(=O)Nc2nccs2)cc1Cl)c1ccc2c(c1)CCCC2` (stereo not drawn) [Example 55, 5-chloro-2-fluoro-4-((1-(5,6,7,8-tetrahydronaphthalen-2-yl)propyl)amino)-N-(thiazol-2-yl)benzenesulfonamide], for which the IC50 on NaV1.1 turned out to be 16.1 µM; at NaV1.5, 21.3 µM; at NaV1.6 it was 20.7 µM.
In the same order, the values of `CCC(Nc1cc(F)c(S(=O)(=O)Nc2nccs2)cc1Cl)c1cccnc1` (stereo not drawn) [Example 58, 5-chloro-2-fluoro-4-((1-(pyridin-3-yl)propyl)amino)-N-(thiazol-2-yl)benzenesulfonamide] are 2.53 µM, 7.09 µM and 0.152 µM.
Turning to `CCC(Nc1cc(F)c(S(=O)(=O)Nc2nccs2)cc1Cl)c1ccncc1` (stereo not drawn) [Example 60, 5-chloro-2-fluoro-4-((1-(pyridin-4-yl)propyl)amino)-N-(thiazol-2-yl)benzenesulfonamide], the results for the IC50 against NaV1.1, at NaV1.5 and at NaV1.6 were 1.57 µM, 30 µM and 3.34 µM, respectively.
`O=S(=O)(Nc1nccs1)c1cc(Cl)c(N[C@H](CN2CC(F)C2)c2ccccc2)cc1F` [Example 68, (S)-5-chloro-4-((2-(3-fluoroazetidin-1-yl)-1-phenylethyl)amino)-2-fluoro-N-(thiazol-2-yl)benzenesulfonamide 2,2,2-trifluoroacetate]: the IC50 was determined as 5.15 µM at NaV1.1, 25.3 µM on NaV1.5 and 1.81 µM at NaV1.6.
Turning to `O=S(=O)(Nc1nccs1)c1cc(Cl)c(N[C@H](CN2CC(F)(F)C2)c2ccccc2)cc1F` [Example 69, (S)-5-chloro-4-((2-(3,3-difluoroazetidin-1-yl)-1-phenylethyl)amino)-2-fluoro-N-(thiazol-2-yl)benzenesulfonamide], the values for the IC50 against NaV1.1, on NaV1.5 and at NaV1.6 were 3.03 µM, 7.66 µM and 1.59 µM, respectively.
In the same order, the values of `O=S(=O)(Nc1nccs1)c1cc(Cl)c(N[C@@H](CN2CCCC2)c2ccccc2)cc1F` [Example 71, (R)-5-chloro-2-fluoro-4-((1-phenyl-2-(pyrrolidin-1-yl)ethyl)amino)-N-(thiazol-2-yl)benzenesulfonamide] are 30 µM, 30 µM and 30 µM.
For the molecule `O=S(=O)(Nc1nccs1)c1cc(Cl)c(N[C@H](CN2CCOCC2)c2ccccc2)cc1F` [Example 75, (S)-5-chloro-2-fluoro-4-((2-morpholino-1-phenylethyl)amino)-N-(thiazol-2-yl)benzenesulfonamide 2,2,2-trifluoroacetate], the figures for the 50% inhibitory concentration (IC50) against NaV1.1, at NaV1.5 and at NaV1.6 were 13.6 µM, 21.7 µM and 0.261 µM, respectively.
On to `O=S(=O)(Nc1nccs1)c1ccc(N[C@H]2CCCc3cccnc32)c(Cl)c1` [Example 77, (S)-3-chloro-4-((5,6,7,8-tetrahydroquinolin-8-yl)amino)-N-(thiazol-2-yl)benzenesulfonamide], for which the IC50 at NaV1.1 was found to be 7.98 µM; at NaV1.5, 26.1 µM; at NaV1.6 it was 8.08 µM.
In the same order, the values of `C[C@H](Nc1ccc(S(=O)(=O)Nc2nccs2)cc1Cl)c1ccccn1` [Example 82, (S)-3-chloro-4-((1-(pyridin-2-yl)ethyl)amino)-N-(thiazol-2-yl)benzenesulfonamide] are 28.7 µM, 30 µM and 2.16 µM.
In the same order, the values of `CC(Nc1ccc(S(=O)(=O)Nc2nccs2)cc1Cl)c1cnn(C)c1` (stereo not drawn) [Example 83, 3-chloro-4-((1-(1-methyl-1H-pyrazol-4-yl)ethyl)amino)-N-(thiazol-2-yl)benzenesulfonamide] are 11 µM, 30 µM and 12.3 µM.
In the case of `C[C@H](Nc1cc(F)c(S(=O)(=O)Nc2cscn2)cc1Cl)c1ccccc1Cl` [Example 92, (S)-5-chloro-4-((1-(2-chlorophenyl)ethyl)amino)-2-fluoro-N-(thiazol-4-yl)benzenesulfonamide], the IC50 on NaV1.1 was determined as 7.45 µM; at NaV1.5 it was 4.43 µM; on NaV1.6, 2.53 µM.
Turning to `O=S(=O)(Nc1nccs1)c1cc(Cl)c(NC2CCCc3ccncc32)cc1F` (stereo not drawn) [Example 93, 5-chloro-2-fluoro-4-((5,6,7,8-tetrahydroisoquinolin-8-yl)amino)-N-(thiazol-2-yl)benzenesulfonamide 2,2,2-trifluoroacetate], the IC50 came out at 0.314 µM against NaV1.1, 8.47 µM at NaV1.5 and 0.27 µM on NaV1.6.
In the same order, the values of `O=S(=O)(Nc1nccs1)c1cc(Cl)c(NC2CCCc3cnccc32)cc1F` (stereo not drawn) [Example 94, 5-chloro-2-fluoro-4-((5,6,7,8-tetrahydroisoquinolin-5-yl)amino)-N-(thiazol-2-yl)benzenesulfonamide 2,2,2-trifluoroacetate] are 0.142 µM, 8.62 µM and 0.423 µM.
Regarding `C[C@H](Oc1cc(F)c(S(=O)(=O)Nc2nccs2)cc1Cl)c1cc(Cl)ccc1F` [Example 95, (S)-5-chloro-4-(1-(5-chloro-2-fluorophenyl)ethoxy)-2-fluoro-N-(thiazol-2-yl)benzenesulfonamide], the IC50 at NaV1.1 turned out to be 8.11 µM; on NaV1.5, 30 µM; on NaV1.6, 0.761 µM.
As for `O=S(=O)(Nc1nccs1)c1cc(Cl)c(NC2CCCc3ncccc32)cc1F` (stereo not drawn) [Example 98, 5-chloro-2-fluoro-4-((5,6,7,8-tetrahydroquinolin-5-yl)amino)-N-(thiazol-2-yl)benzenesulfonamide formate], the IC50 on NaV1.1 stood at 0.303 µM; at NaV1.5, 11 µM; at NaV1.6 it was 0.299 µM.
`O=S(=O)(Nc1nccs1)c1ccc(NC(c2ccccc2)C2CC2)c(Cl)c1` (stereo not drawn) [Example 99, 3-chloro-4-((cyclopropyl(phenyl)methyl)amino)-N-(thiazol-2-yl)benzenesulfonamide]: the results for the concentration for half-maximal inhibition (IC50) on NaV1.1, at NaV1.5 and at NaV1.6 were 1.94 µM, 9.27 µM and 0.373 µM, respectively.
In the same order, the values of `O=S(=O)(Nc1nccs1)c1cc(Cl)c(NC(c2ccccc2)C2CC2)cc1F` (stereo not drawn) [Example 100, 5-chloro-4-((cyclopropyl(phenyl)methyl)amino)-2-fluoro-N-(thiazol-2-yl)benzenesulfonamide] are 0.667 µM, 6.42 µM and 0.216 µM.
In the same order, the values of `O=S(=O)(Nc1nccs1)c1cc(Cl)c(N[C@@H]2CCCc3ccccc32)cc1F` [Example 102, (R)-5-chloro-2-fluoro-4-((1,2,3,4-tetrahydronaphthalen-1-yl)amino)-N-(thiazol-2-yl)benzenesulfonamide] are 0.941 µM, 5.97 µM and 1.67 µM.
For `O=S(=O)(Nc1nccs1)c1cc(Cl)c(NC2(c3cccc(F)c3)CCC2)cc1F` [Example 106, 5-chloro-2-fluoro-4-((1-(3-fluorophenyl)cyclobutyl)amino)-N-(thiazol-2-yl)benzenesulfonamide], the IC50 against NaV1.1 turned out to be 3.7 µM; at NaV1.5 it was 10.1 µM; against NaV1.6 it was 0.533 µM.
In the same order, the values of `C[C@H](Oc1cc(F)c(S(=O)(=O)Nc2nccs2)cc1Cl)c1ccc(Cl)c(Cl)c1` [Example 108, (S)-5-chloro-4-(1-(3,4-dichlorophenyl)ethoxy)-2-fluoro-N-(thiazol-2-yl)benzenesulfonamide] are 21.1 µM, 22.4 µM and 14.5 µM.
On to `CC(C)C[C@H](Nc1cc(F)c(S(=O)(=O)Nc2nccs2)cc1Cl)c1ccccc1` [Example 109, (S)-5-chloro-2-fluoro-4-((3-methyl-1-phenylbutyl)amino)-N-(thiazol-2-yl)benzenesulfonamide], for which the figures for the IC50 at NaV1.1, on NaV1.5 and on NaV1.6 were 1.11 µM, 7.86 µM and 0.214 µM, respectively.
In the same order, the values of `CC(C)C[C@@H](Nc1cc(F)c(S(=O)(=O)Nc2nccs2)cc1Cl)c1ccccc1` [Example 110, (R)-5-chloro-2-fluoro-4-((3-methyl-1-phenylbutyl)amino)-N-(thiazol-2-yl)benzenesulfonamide] are 3.84 µM, 3.15 µM and 1.03 µM.
`CCC[C@H](Nc1cc(F)c(S(=O)(=O)Nc2nccs2)cc1Cl)c1ccccc1` [Example 111, (S)-5-chloro-2-fluoro-4-((1-phenylbutyl)amino)-N-(thiazol-2-yl)benzenesulfonamide]: the IC50 is 1.39 µM on NaV1.1, 8.33 µM at NaV1.5 and 0.352 µM on NaV1.6.
Regarding `C[C@H](Oc1cc(F)c(S(=O)(=O)Nc2cscn2)cc1Cl)c1cccc(F)c1` [Example 118, (S)-5-chloro-2-fluoro-4-(1-(3-fluorophenyl)ethoxy)-N-(thiazol-4-yl)benzenesulfonamide], the IC50 worked out at 15.9 µM against NaV1.1, 7.5 µM on NaV1.5 and 3.18 µM at NaV1.6.
In the same order, the values of `C[C@@H](Oc1cc(F)c(S(=O)(=O)Nc2nccs2)cc1Cl)c1ccccc1F` [Example 121, (R)-5-chloro-2-fluoro-4-(1-(2-fluorophenyl)ethoxy)-N-(thiazol-2-yl)benzenesulfonamide] are 3.38 µM, 2.15 µM and 2.32 µM.
In the same order, the values of `C[C@H](Oc1cc(F)c(S(=O)(=O)Nc2cscn2)cc1Cl)c1cc(Cl)ccc1F` [Example 124, (S)-5-chloro-4-(1-(5-chloro-2-fluorophenyl)ethoxy)-2-fluoro-N-(thiazol-4-yl)benzenesulfonamide] are 15.9 µM, 1.87 µM and 1.84 µM.
